In patent US20240300935A1, “Nitrogen Oxide Donors of Beraprost Derivative and the Pharmaceutical Compositions with the Use Thereof” (GUANGZHOU KEMROCMED CO., LTD., priority 2021, published 2024):

What was measured:
[1] = In vitro NO release test (Griess method); conditions: 200 μM test compound solution mixed with 200 μM L-cysteine solution, 37° C.
Method: NO was transiently oxidized in aqueous solution using released NO by Griess' method, NO^2− And Griess reagent form a complex, which has strong UV uptake at 540 nm to determine the amount of NO released by the compound. • 1) Preparation of solution: blank solution: 10 mL DMSO and 190 m L PBS mixed; G riess Reagent: sulfonamide (4.0 g), N-(1-naphthalyl) ethylenediamine dihydrochloride (0.2 g) and 10 mL 85% H3PO4 dissolved in 90 mL of distilled water, Blow until clear solution; L-cysteine solution: after accurate weighing of L-cysteine, Add a certain amount of PBS, Prepare a weighed 200 μM solution; Test compound solution: the exact weighing of the test compound, Dissolved in D MSO and diluted to a concentration of 1 mM, Then, when diluted in PBS, To a concentration of 200 μM.
2) Formulation of standard curve equation: prepare sodium nitrite solution concentration: 0 ,0 , 1, 3, 6, 12.5, 25, 50, 100 μmol/L, 150 μL of each concentration, add 50 μL of Griess reagent mix, incubated in 37° C. constant temperature shaker for 30 min, the plate reader measured each tube absorbance at 540 nm, after subtracting the blank solution reading, the standard curve equation . . . 78.56.13.25 • 3) Test compound test: mix 2 mL of the test compound solution and L-cysteine solution, incubate in 37° C. constant temperature shakers for 120 min, take 150 μL of each mixture, add 50 μL of Griess reagent, then incubate in 37° C. constant temperature shaker for 30 min, the microplate measured each tube absorbance at 540 nm, then subtract the blank solution reading and substitute the value into the standard curve equation to obtain NO release.

[2] = system: platelet aggregation induced by ADP; assay: Antiplatelet aggregation effect, ADP-induced, turbidimetry in platelet-rich plasma; assay type: cell-based; conditions: Homo sapiens, 2 min; platelet rich plasma of healthy subjects; 25 μL of 50 nM compound solution in 225 μL plasma, 37° C. 2 min; ADP final 2 μM; read-out: The rate of platelet aggregation inhibition
Method: • 1) Experimental material: ADP, epinephrine, collagen (bilBio) • 2) Experimental method: blood samples provided by healthy subjects were mixed blood with 3.8% citric acid solution and centrifuged at 160 r/min to obtain platelet-rich plasma. To calibrate the data, the obtained platelet-rich plasma was further centrifuged at 2000 r/min to obtain platelet-poor plasma, stored in a −20° C. refrigerator. Testing was performed using Born I's turbiometry. 225 μL of platelet rich plasma was added to the reaction cup, the embodiment compound was configured as 50 nM solution (25 m M Tris-acetate and 120 m M N a Cl), 25 μL of embodiment compound solution was added and after incubation at 37° C. for 2 min, 5 μL of ADP (final concentration 2 μM) was added for platelet aggregation induction. To assess the degree of platelet aggregation, the maximum absorbance value took the data after ADP, thus calculating the inhibition rate of ADP-induced platelet aggregation by each embodiment compound. According to the data in Table 6 below, the compounds of the present application embodiment all have a good effect of inhibiting the platelet aggregation induced by ADP.

| Compound | 120 min NO^2− [1] | inhibition at 0.005 µM [2] |
| --- | --- | --- |
| CC#CCC(C)[C@@H](O)/C=C/[C@H]1[C@@H]2c3cccc(CCCC(=O)OCCO[N+](=O)[O-])c3O[C@@H]2C[C@@H]1O (stereo partly drawn) [Compound 1] | 15.5 µM | 78% |
| CC#CCC(C)[C@@H](O)/C=C/[C@H]1[C@@H]2c3cccc(CCCC(=O)OCCCO[N+](=O)[O-])c3O[C@@H]2C[C@@H]1O (stereo partly drawn) [Compound 2] | 14.3 µM | 66% |
| CC#CCC(C)[C@@H](O)/C=C/[C@H]1[C@@H]2c3cccc(CCCC(=O)OCCCCO[N+](=O)[O-])c3O[C@@H]2C[C@@H]1O (stereo partly drawn) [Compound 3] | 16.6 µM | 57% |
| CC#CCC(C)[C@@H](O)/C=C/[C@H]1[C@@H]2c3cccc(CCCC(=O)OCCCCCO[N+](=O)[O-])c3O[C@@H]2C[C@@H]1O (stereo partly drawn) [Compound 4] | 14.1 µM | 43% |
| CC#CCC(C)[C@@H](O)/C=C/[C@H]1[C@@H]2c3cccc(CCCC(=O)OCCCCCCO[N+](=O)[O-])c3O[C@@H]2C[C@@H]1O (stereo partly drawn) [Compound 5] | 11.8 µM | 64% |
| CC#CCC(C)[C@@H](O)/C=C/[C@H]1[C@@H]2c3cccc(CCCC(=O)OCOCCO[N+](=O)[O-])c3O[C@@H]2C[C@@H]1O (stereo partly drawn) [Compound 6] | 17.8 µM | 39% |
| CC#CCC(C)[C@@H](O)/C=C/[C@H]1[C@@H]2c3cccc(CCCC(=O)OCOCCCO[N+](=O)[O-])c3O[C@@H]2C[C@@H]1O (stereo partly drawn) [Compound 7] | 17.7 µM | 44% |
| CC#CCC(C)[C@@H](O)/C=C/[C@H]1[C@@H]2c3cccc(CCCC(=O)OCCOCCO[N+](=O)[O-])c3O[C@@H]2C[C@@H]1O (stereo partly drawn) [Compound 8] | 14.8 µM | 61% |
| CC#CCC(C)[C@@H](O)/C=C/[C@H]1[C@@H]2c3cccc(CCCC(=O)OCOC(=O)O[N+](=O)[O-])c3O[C@@H]2C[C@@H]1O (stereo partly drawn) [Compound 9] | 18.2 µM | 52% |
| CC#CCC(C)[C@@H](O)/C=C/[C@H]1[C@@H]2c3cccc(CCCC(=O)OCOC(=O)CCO[N+](=O)[O-])c3O[C@@H]2C[C@@H]1O (stereo partly drawn) [Compound 10] | 11.3 µM | 54% |
| CC#CCC(C)[C@@H](O)/C=C/[C@H]1[C@@H]2c3cccc(CCCC(=O)OCCCc4ccc(CO[N+](=O)[O-])cc4)c3O[C@@H]2C[C@@H]1O (stereo partly drawn) [Compound 11] | 10.1 µM | 67% |
| CC#CCC(C)[C@@H](O)/C=C/[C@H]1[C@@H]2c3cccc(CCCC(=O)OCOC(=O)CCCO[N+](=O)[O-])c3O[C@@H]2C[C@@H]1O (stereo partly drawn) [Compound 12] | 8.5 µM | 42% |
| CC#CCC(C)[C@@H](O)/C=C/[C@H]1[C@@H]2c3cccc(CCCC(=O)OCCCCc4ccc(CO[N+](=O)[O-])cc4)c3O[C@@H]2C[C@@H]1O (stereo partly drawn) [Compound 13] | 10.1 µM | 61% |
| CC#CCC(C)[C@@H](O)/C=C/[C@H]1[C@@H]2c3cccc(CCCC(=O)OCCC4CCC(CO[N+](=O)[O-])CC4)c3O[C@@H]2C[C@@H]1O (stereo partly drawn) [Compound 14] | 9.6 µM | 48% |
| CC#CCC(C)[C@@H](O)/C=C/[C@H]1[C@@H]2c3cccc(CCCC(=O)OCOC(=O)CCCCO[N+](=O)[O-])c3O[C@@H]2C[C@@H]1O (stereo partly drawn) [Compound 16] | 12.1 µM | 81% |
| CC#CCC(C)[C@@H](O)/C=C/[C@H]1[C@@H]2c3cccc(CCCC(=O)OCCOC(=O)CO[N+](=O)[O-])c3O[C@@H]2C[C@@H]1O (stereo partly drawn) [Compound 17] | 7.6 µM | 59% |
| CC#CCC(C)[C@@H](O)/C=C/[C@H]1[C@@H]2c3cccc(CCCC(=O)OCCCOC(=O)CCO[N+](=O)[O-])c3O[C@@H]2C[C@@H]1O (stereo partly drawn) [Compound 18] | 8.0 µM | 66% |
| CC#CCC(C)[C@@H](O)/C=C/[C@H]1[C@@H]2c3cccc(CCCC(=O)OCCCCOC(=O)CCO[N+](=O)[O-])c3O[C@@H]2C[C@@H]1O (stereo partly drawn) [Compound 19] | 11.3 µM | 69% |
| CC#CCC(C)[C@@H](O)/C=C/[C@H]1[C@@H]2c3cccc(CCCC(=O)OCCOC(=O)CCO[N+](=O)[O-])c3O[C@@H]2C[C@@H]1O (stereo partly drawn) [Compound 20] | 10.0 µM | 45% |
| CC#CCC(C)[C@@H](O)/C=C/[C@H]1[C@@H]2c3cccc(CCCC(=O)OCCOC(=O)C(C)CO[N+](=O)[O-])c3O[C@@H]2C[C@@H]1O (stereo partly drawn) [Compound 21] | 11.1 µM | 81% |
| CC#CCC(C)[C@@H](O)/C=C/[C@H]1[C@@H]2c3cccc(CCCC(=O)OCCCOC(=O)CCCO[N+](=O)[O-])c3O[C@@H]2C[C@@H]1O (stereo partly drawn) [Compound 22] | 13.7 µM | 52% |
| CC#CCC(C)[C@@H](O)/C=C/[C@H]1[C@@H]2c3cccc(CCCC(=O)OCCCCOC(=O)CO[N+](=O)[O-])c3O[C@@H]2C[C@@H]1O (stereo partly drawn) [Compound 23] | 15.5 µM | 56% |
| CC#CCC(C)[C@@H](O)/C=C/[C@H]1[C@@H]2c3cccc(CCCC(=O)OCOC(=O)Cc4ccc(CO[N+](=O)[O-])cc4)c3O[C@@H]2C[C@@H]1O (stereo partly drawn) [Compound 24] | 15.8 µM | 47% |
| CC#CCC(C)[C@@H](O)/C=C/[C@H]1[C@@H]2c3cccc(CCCC(=O)OCCOC(=O)c4cccc(CO[N+](=O)[O-])c4)c3O[C@@H]2C[C@@H]1O (stereo partly drawn) [Compound 25] | 10.7 µM | 35% |
| CC#CCC(C)[C@@H](O)/C=C/[C@H]1[C@@H]2c3cccc(CCCC(=O)OCCCOC(=O)c4cccc(CO[N+](=O)[O-])c4)c3O[C@@H]2C[C@@H]1O (stereo partly drawn) [Compound 26] | 12.6 µM | 22% |
| CC#CCC(C)[C@@H](O)/C=C/[C@H]1[C@@H]2c3cccc(CCCC(=O)OCCCCOC(=O)c4cccc(CO[N+](=O)[O-])c4)c3O[C@@H]2C[C@@H]1O (stereo partly drawn) [Compound 27] | 11.9 µM | 35% |
| CC#CCC(C)[C@@H](O)/C=C/[C@H]1[C@@H]2c3cccc(CCCC(=O)OCC(CO[N+](=O)[O-])CO[N+](=O)[O-])c3O[C@@H]2C[C@@H]1O (stereo partly drawn) [Compound 28] | 14.8 µM | 47% |
| CC#CCC(C)[C@@H](O)/C=C/[C@H]1[C@@H]2c3cccc(CCCC(=O)OCCC(CO[N+](=O)[O-])CO[N+](=O)[O-])c3O[C@@H]2C[C@@H]1O (stereo partly drawn) [Compound 29] | 16.2 µM | 56% |
| CC#CCC(C)[C@@H](O)/C=C/[C@H]1[C@@H]2c3cccc(CCCC(=O)OCOCC(CO[N+](=O)[O-])O[N+](=O)[O-])c3O[C@@H]2C[C@@H]1O (stereo partly drawn) [Compound 30] | 17.8 µM | 52% |
| CC#CCC(C)[C@@H](O)/C=C/[C@H]1[C@@H]2c3cccc(CCCC(=O)OCCCOCC(CO[N+](=O)[O-])O[N+](=O)[O-])c3O[C@@H]2C[C@@H]1O (stereo partly drawn) [Compound 31] | 16.7 µM | 67% |
